The values below come from paper PMC10096449, “Anti-SARS-CoV-2 Activity and Cytotoxicity of Amaryllidaceae Alkaloids from Hymenocallis littoralis” (Molecules, 2023).

For series [1], the system named is SARS-CoV-2. The experiment in a line: microbe, parasite or virus in culture. Format: cell-based, SARS-CoV-2 isolate BetaCov/Belgium/GHB-03021/2020. As to conditions: for EC50: read-out: EC50 (anti-SARS-CoV-2 activity); for IC50: Severe acute respiratory syndrome coronavirus 2.
A further series can be described thus: in vitro. As to conditions: African green monkey.
The next series relates to Vero-E6 cells. The note with it: for CC50: single experiment (duplicate experiments listed).
The subject of series [2] is SARS-CoV-2. Details: method as in Zhang et al. [31]. As to conditions: RT-PCR read-out after 18–24 h; ref Zhang et al. [31]; read-out: EC50 (anti-SARS-CoV-2 activity); cited from earlier work.
On the set-up of series [3]: method as in Zhang et al. [31]. The note with it: ref Zhang et al. [31]; cited from earlier work.
The test system of series [4] is SARS-CoV-2. Details: method as in Jin et al. [32]. The note with it: in Vero cells; ref Jin et al. [32]; read-out: EC50 (anti-SARS-CoV-2 activity); cited from earlier work.
Another series concerns HEK293. Details: method as in Jin et al. [32]. As to conditions: on HEK293; ref Jin et al. [32]; cited from earlier work.
The subject of series [5] is SARS-CoV-2. The arrangement: method as in Ren et al. [33]. As to conditions: in the Vero-E6 cell; ref Ren et al. [33]; read-out: EC50 (anti-SARS-CoV-2 activity); cited from earlier work.
For another series, the system named is Vero-E6. The arrangement: method as in Ren et al. [33]. As to conditions: ref Ren et al. [33]; cited from earlier work.
A further series deals with Huh-7. Details: method as in Ren et al. [33]. As to conditions: ref Ren et al. [33]; cited from earlier work.
The test system of the next series is HEK293T. Details: method as in Ren et al. [33]. The note with it: ref Ren et al. [33]; cited from earlier work.
The mark [6] stands for this setting: Severe acute respiratory syndrome coronavirus 2, 96 h.
Setting [7] is: CC50 (cytotoxicity on Vero-E6 cells), MTS-assay, absence of virus.
Setting [8] is: CC50 (µM), single experiment (duplicate experiments listed), Vero-E6 cells.
[9] abbreviates: av. CC50 (µM), average of two experiments, Vero-E6 cells.

Read-outs that look alike come from different tables or passages of the source.

Usually EC50 stands for the concentration at which the effect is half-maximal. The IC50 is the midpoint of a concentration-inhibition curve.

For `COc1cc2c(c(O)c1OC)[C@]13CC[C@H](OC)C[C@H]1N(CC3)[C@H]2O` [Compound 5, 6β-hydroxyhippeastidine], the 50% effective concentration (EC50) with SARS-CoV-2 [1] (setting [6]) was found to be 44 µM. Also, the CC50 in “in vitro” (setting [7]) was > 100 µM.

In the case of `COc1cc2c(cc1O)[C@@H](OC)O[C@@H]1CC=C3CCN(C)[C@H]3[C@H]21` [Compound 11, 9-O-demethyl-7-O-methyllycorenine], the concentration giving a half-maximal response (EC50) with SARS-CoV-2 [1] (setting [6]) was in the range of 40 to 77 µM. Also, the IC50 with SARS-CoV-2 [1] (read-out: IC50) was determined as 99.4 µM; in the series on SARS-CoV-2 [1] (read-out: av. IC50), 77.2 µM. Besides, the CC50 in “in vitro” (setting [7]), in the series “in vitro” (setting [8]) and in “in vitro” (setting [9]) was > 100 µM in each case.

Take `O[C@H]1[C@H]2c3cc4c(cc3CN3CCC(=C[C@H]1O)[C@H]23)OCO4` [Compound 7, 2-epi-lycorine]: in the series with SARS-CoV-2 [1] (setting [6]), the concentration giving a half-maximal response (EC50) is 54 µM. Further, the results for the IC50 in the series on SARS-CoV-2 [1] (read-out: IC50) and in the series on SARS-CoV-2 [1] (read-out: av. IC50) were 69.3 µM and 54.2 µM, respectively. The CC50 in the series “in vitro” (setting [7]), in the series “in vitro” (setting [8]) and in “in vitro” (setting [9]) was > 100 µM throughout.

As to `COc1cc2c(cc1O)[C@@H]1[C@H](O)[C@H](O)C=C3CCN(C2)[C@H]31` (racemic) [Compounds 2 and 3, (±)-2-epi-pseudolycorine], in the series with SARS-CoV-2 [1], the “antiviral activity against SARS-CoV-2 (in words)” value (shortened to “antiviral activity”) is reported as “loss of the antiviral activity”. Further, the half-maximal effective concentration (EC50) with SARS-CoV-2 [1] (setting [6]) is > 100 µM. In addition, the half-inhibitory concentration (IC50) with SARS-CoV-2 [1] (read-out: IC50) and in the series on SARS-CoV-2 [1] (read-out: av. IC50) was > 100 µM in each case. Moreover, the CC50 in the series “in vitro” (setting [7]), in “in vitro” (setting [8]) and in the series “in vitro” (setting [9]) was > 100 µM in each case.

Turning to `COc1cc2c(cc1O)C1C(O)C(O)C=C3CCN(C2)C31` (single isomer, unassigned; (+)) [Compound 3, (+)-2-epi-pseudolycorine], in the series on SARS-CoV-2 [1], the “antiviral activity” value was “lacked antiviral activity”. The “cytotoxicity on Vero-E6 cells (in words)” value in the series with Vero-E6 cells is “lacked antiviral activity, as well as cytotoxicity”.

For the compound `O=C1N[C@H]2[C@H](O)[C@H](O)[C@@H](O)[C@H](O)[C@@H]2c2cc3c(c(O)c21)OCO3` [Compound 10, pancratistatin], the “antiviral activity” value with SARS-CoV-2 [1] is reported as “lacked selective antiviral activity”. Besides, the concentration for half-maximal inhibition (IC50) in the series with SARS-CoV-2 [1] (read-out: IC50) and in the series on SARS-CoV-2 [1] (read-out: av. IC50) was > 100 µM in each case. Besides, the values for the CC50 with Vero-E6 cells, in “in vitro” (setting [7]) and in the series “in vitro” (setting [8]) were 0.122 µM, 0.13 µM and 0.14 µM, respectively.

In the case of `COc1cc2c(c(O)c1OC)[C@]13CC[C@H](OC)C[C@H]1N(CC3)[C@@H]2O` [Compound 4, 6α-hydroxyhippeastidine], the EC50 in the series with SARS-CoV-2 [1] (setting [6]) is 44 µM. Further, in “in vitro” (setting [7]), the CC50 is > 100 µM.

In the case of `Oc1ccc2c3c1OC1CC(O)CCC31CCNC2` (stereo not drawn) [Compound 1, O-demethyl-norlycoramine], in the series with SARS-CoV-2 [1] (setting [6]), the EC50 turned out to be 45 µM. Moreover, the IC50 in the series on SARS-CoV-2 [1] (read-out: IC50) was determined as 54 µM; in the series with SARS-CoV-2 [1] (read-out: av. IC50), 45.8 µM. The CC50 in the series “in vitro” (setting [7]), in “in vitro” (setting [8]) and in “in vitro” (setting [9]) was > 100 µM in each case.

Take `COc1cc2c(cc1O)[C@@H]1[C@H](O)[C@H](O)C=C3CCN(C2)[C@H]31` [Compound 2, (−)-2-epi-pseudolycorine]: in the series on SARS-CoV-2 [1], the “antiviral activity” value is listed as “lacked antiviral activity”. Besides, in the series with Vero-E6 cells, the “cytotoxicity on Vero-E6 cells (in words)” value is “lacked antiviral activity, as well as cytotoxicity”.

For the compound `O[C@H]1[C@H]2c3cc4c(cc3CN3CCC(C[C@H]1O)[C@H]23)OCO4` (stereo partly drawn) [Compound 8, zephyranthine], the 50% effective concentration (EC50) in the series on SARS-CoV-2 [1] (setting [6]) is 40 to 77 µM; in the series with SARS-CoV-2 [1], 39 µM. Also, the half-maximal inhibitory concentration (IC50) turned out to be 37.1 µM in the series on SARS-CoV-2 [1] (read-out: IC50) and 39.6 µM in the series with SARS-CoV-2 [1] (read-out: av. IC50). Besides, the CC50 in the series “in vitro” (setting [7]), in “in vitro” (setting [8]) and in the series “in vitro” (setting [9]) was > 100 µM each time.

`[O-]c1cc2c3c(c1)c1cc4c(cc1c[n+]3CC2)OCO4` [Compound 9, ungeremine]: the results for the “antiviral activity” value in the series with SARS-CoV-2 [1] and with SARS-CoV-2 [1] (listed as ungeremine) were “lacked antiviral activity” and “did not improve its anti-SARS-CoV-2 potency”, respectively. For the same compound, the EC50 in the series on SARS-CoV-2 [1] (setting [6]) was > 100 µM. Also, the IC50 in the series on SARS-CoV-2 [1] (read-out: IC50) and with SARS-CoV-2 [1] (read-out: av. IC50) was > 100 µM in each case. Further, the “cytotoxicity on Vero-E6 cells (in words)” value in the series on Vero-E6 cells is recorded as “lacked antiviral activity, as well as cytotoxicity”; in the series with Vero-E6 cells (listed as ungeremine), “eliminated cytotoxicity on the Vero-E6 cell line”. Further, the CC50 in the series “in vitro” (setting [7]), in “in vitro” (setting [8]) and in the series “in vitro” (setting [9]) was > 100 µM in each case.

`O[C@H]1[C@H]2c3cc4c(cc3CN3CCC(=C[C@@H]1O)[C@H]23)OCO4` [Compound 6, lycorine]: the “antiviral activity” value in the series on SARS-CoV-2 [1] is on record as “lacked selective antiviral activity”. Further, the 50% effective concentration (EC50) with SARS-CoV-2 [1] (setting [6]) was > 100 µM; in the series with SARS-CoV-2 [2], 0.18 µM; with SARS-CoV-2 [4], 0.878 ± 0.022 µM; in the series on SARS-CoV-2 [5], 0.439 ± 0.122 µM. The IC50 with SARS-CoV-2 [1] (read-out: IC50) and in the series with SARS-CoV-2 [1] (read-out: av. IC50) was > 100 µM in each case. Besides, the CC50 in the series on Vero-E6 cells was 1.14 µM; in series [3], > 40 µM; in the series with HEK293, > 10 µM; in the series with Vero-E6 it was > 1000 µM; in the series with Huh-7 it was 0.834 ± 0.063 µM; in the series on HEK293T it was 1.04 ± 0.0734 µM. For the same compound, the figures for the CC50 in the series “in vitro” (setting [7]), in “in vitro” (setting [8]) and in the series “in vitro” (setting [9]) were 1.2 µM, 1.28 µM and 1.21 µM, respectively.
